From patent US6452052B1, “Aniline disulfide derivatives for treating allergic diseases” (Alcon Universal Ltd., priority 2000, dated 2002)
Where “and” joins values, the source holds several entries; their conditions need not be identical. Identical values can stand only once. Like-named read-outs stand apart in the source and are kept apart here.

Tested on: human conjunctival tissue mast cells
Test: Inhibition of anti-human IgE-induced histamine release from human conjunctival tissue mast cells (HCTMC)
Assay type: cell-based
Procedure: Methods detailing preparation of monodispersed HCTMC and mediator release studies with these cells have been described (U.S. Pat. No. 5,360,720 and Miller et al, Ocular Immunology and Inflammation, 4(1):39-49 (1996)). Briefly, human conjunctival tissue mast cells were isolated from post-mortem tissue donors obtained within 8 hours of death by various eye banks and transported in Dexsol® corneal preservation medium, or equivalent. Tissues were enzymatically digested by repeated exposure (30 min. at 37° C.) to collagenase and hyaluronidase (2× with 200 U each/gram tissue, then 2-4× with 2000 U each/gram tissue) in Tyrode's buffer containing 0.1% gelatin. (Tyrode's buffer (in mM): 137 NaCl, 2.7 KCl, 0.35 NaH2PO4, 1.8 CaCl2, 0.98 MgCl2, 11.9 NaHCO3, and 5.5 glucose). Each digestion mixture was filtered over Nitex® cloth (100 μm mesh, Tetko, Briarcliff Manor, N.Y.) and washed with an equal volume of buffer. Filtrates were centrifuged at 825×g (7 min). Pellets were resuspended in buffer then combined for enrichment over a […] Percoll® cushion. The enriched pellet was washed, resuspended in supplemented RPMI 1640 medium and incubated at 37° C. to equilibrate.
Cells were harvested from the culture plate and counted for viability (trypan blue exclusion) and mast cell number (toluidine blue O). Mast cells (5000/tube; 1 mL final volume) were challenged (37° C.) for 15 min with goat-anti-human IgE (10 μg/mL) following treatment (15 minutes; 37° C.) with test drug or Tyrode's buffer. Total and non-specific release controls were exposed to 0.1% Triton X-100 and goat IgG (10 μg/mL), respectively. The reaction was terminated by centrifugation (500×g, 4° C., 10 min). Supernatants were stored at −20° C. until analyzed for histamine content by RIA (Beckman Coulter, Chicago, Ill.).
All test drugs were made to solution immediately prior to use. Each was dissolved in DMSO at 10 mM or greater concentration and then diluted in Tyrode's buffer containing 0.1% gelatin over the concentration for evaluation.
Inhibition of histamine release was determined by direct comparison of with anti-IgE challenged mast cells using Dunnett's t-test (Dunnett, “A multiple comparison procedure for comparing treatments with a control”, J. Amer. Stat. Assoc. (1955), 50:1096-1121).

[1] = Homo sapiens, Mast cell, bracketed value = mean of the two determinations, anti-IgE challenged human conjunctival mast cells, read-out: IC50(nM), inhibition of histamine release, value in square brackets
[2] = individual determinations, mast cells 5000/tube, 15 min drug treatment at 37° C., then 15 min challenge with goat-anti-human IgE (10 μg/mL), histamine by RIA, read-out: IC50(nM), inhibition of histamine release

Row | SMILES | IC50 [1] | IC50 [2] | IC50 (Homo sapiens, Mast cell, 0.25 h, individual determinations, mast cells 5000/tube, 15 min drug treatment at 37° C., then 15 min challenge with goat-anti-human IgE (10 μg/mL), histamine by RIA, read-out: IC50(nM), inhibition of histamine release)
1 | C=CCC(=O)Nc1ccccc1SSc1ccccc1NC(=O)CC=C [Compound 1] | 56 nM | 85 nM and 27 nM | 
2 | CC(=O)Nc1ccccc1SSc1ccccc1NC(C)=O [Compound 2] | 481 nM | 656 nM and 306 nM | 
3 | C=C(C)C(=O)Nc1ccccc1SSc1ccccc1NC(=O)C(=C)C [Compound 3] | 491 nM | 690 nM and 292 nM | 
4 | CC(O)CC(=O)Nc1ccccc1SSc1ccccc1NC(=O)CC(C)O (stereo not drawn) [Compound 4] |  | 3180 nM and < 1000 nM | 
5 | CCOC(=O)Nc1ccccc1SSc1ccccc1NC(=O)OCC [Compound 5] | 1190 nM |  | 
6 | CC(C)(C)C(=O)Nc1ccccc1SSc1ccccc1NC(=O)C(C)(C)C [Compound 6] |  |  | 1700 nM
